# Measurements published in patent EP4810489A1, “SUBSTITUTED 2-(PYRROLIDIN-3-YL)ACETIC ACID DERIVATIVE, PREPARATION METHOD THEREFOR AND USE THEREOF” (Innovstone Therapeutics Limited, priority 2023, dated 2025).
# Columns and labels:
# Lp(a) assembly = target: T1, Lp(a) assembly (Homo sapiens, UniProt P08519); assay: ELISA assay on screening Lp(a) assembly inhibition; assay type: cell-based; details: HepG2 cells overexpressing ApoA protein, 24h incubation, ELISA of culture supernatant
# T1 construct: expressed in transfected cells; host or cells: HepG2 cells overexpressing apo(a)
# Method: Test Example 1 and Methods of ELISA Assay on Screening Lp(a) Assembly Inhibition
# 1. Reagents, Consumables, Instruments
# 2. Cell Culture Media Preparation 2.1. Complete Cell Culture Media
# 3. Test Procedure • 3.1 Cell Culture and Passage • 1) Preheated the culture media, DPBS, and pancreatin in a 37°C water bath in advance. • 2) Digested cells with pancreatin, transferred the cell suspension to a 15 mL centrifuge tube, and centrifuged at 1000 rpm for 5 min. • 3) Resuspended the cells with culture media and transferred the cell suspension to a new T75 cell culture flask. • 4) Cultured at 37°C in a 5% CO2 incubator. • 3.2. Cell Seeding and Drug Administration • 1) Seeded HepG2 cells overexpressing of ApoA protein into a 96-well plate at 100 µL per well and incubated overnight for attachment. • 2) Replaced with fresh culture media the next day, then added diluted compounds, and cultured the cell plate in a 5% CO2, 37°C incubator for 24h. • 3.3. Preparation of Cell Culture Supernatant • 1) Added 10 µL of 1.5 M EACA to each well. • 2) Centrifuged at 1000 rpm for 1 min, and transferred 100 µL of cell culture supernatant to a pre-coated ELISA plate. • 3.4. […]
# Lp(a) = assay: Humanized mouse Lp(a) inhibition test; assay type: in vivo, humanized Lp(a) transgenic mouse; details: oral, 5 mg/kg once daily for 3 consecutive days, blood 8 h after last dose
# Method: Test Example 3 and Humanized Mouse Lp(a) Inhibition Test
# The in vivo pharmacodynamics of the compounds in reducing Lp(a) was evaluated in a humanized Lp(a) transgenic mouse model.Lp(a) mice were obtained by crossing mice expressing humanized apoB-100 with mice expressing humanized apo(a) containing 16 Kringle repeats.Female mice aged 8-9 weeks were selected for the test.Housing conditions: standard light cycle (12 h light/12 h dark), temperature 20-25°C, humidity 40-70%, free access to water and normal diet.
# One day before the test, mice were divided into vehicle control group and test article group (n=5/group) according to body weight and baseline plasma Lp(a) concentration. […] Eight hours after the last dose, 10 µL of blood was collected from the tail vein and transferred to a 1.5 mL centrifuge tube containing 90 µL of normal saline, mixed well, and left to stand on ice for 30min.The above samples were centrifuged at 4°C, 3000 rpm for 10 min, and the supernatant was collected and placed on ice.The Lp(a) concentration in the supernatant was measured by double-antibody sandwich ELISA using an anti-apo(a) capture antibody and an HRP-conjugated anti-ApoB detection antibody, with TMB for color development. The reaction was stopped with 1 N sulfuric acid, and the OD value was read at 450 nm on a Tecan microplate reader.Inhibition rate was calculated for each dosing group. […]
# [1] = Safety assessment test in rats; assay type: in vivo, SD rats; details: oral gavage, 300 mg/kg and 1000 mg/kg once daily for 14 consecutive days
# Method: Test Example 5 and Safety Assessment Test in Rats
# The safety of the compounds of the present invention was evaluated by oral gavage administration to SD rats as the test animals.
# Test method: 50 SD rats (half males and half females) were randomly divided into vehicle control group and test article group according to their body weight. The vehicle saline or the compound of the present invention or LY3473329 (300 mg/kg, 1000 mg/kg) was administered orally once daily for 14 consecutive days.
# T1 sequence (P08519 20-2040): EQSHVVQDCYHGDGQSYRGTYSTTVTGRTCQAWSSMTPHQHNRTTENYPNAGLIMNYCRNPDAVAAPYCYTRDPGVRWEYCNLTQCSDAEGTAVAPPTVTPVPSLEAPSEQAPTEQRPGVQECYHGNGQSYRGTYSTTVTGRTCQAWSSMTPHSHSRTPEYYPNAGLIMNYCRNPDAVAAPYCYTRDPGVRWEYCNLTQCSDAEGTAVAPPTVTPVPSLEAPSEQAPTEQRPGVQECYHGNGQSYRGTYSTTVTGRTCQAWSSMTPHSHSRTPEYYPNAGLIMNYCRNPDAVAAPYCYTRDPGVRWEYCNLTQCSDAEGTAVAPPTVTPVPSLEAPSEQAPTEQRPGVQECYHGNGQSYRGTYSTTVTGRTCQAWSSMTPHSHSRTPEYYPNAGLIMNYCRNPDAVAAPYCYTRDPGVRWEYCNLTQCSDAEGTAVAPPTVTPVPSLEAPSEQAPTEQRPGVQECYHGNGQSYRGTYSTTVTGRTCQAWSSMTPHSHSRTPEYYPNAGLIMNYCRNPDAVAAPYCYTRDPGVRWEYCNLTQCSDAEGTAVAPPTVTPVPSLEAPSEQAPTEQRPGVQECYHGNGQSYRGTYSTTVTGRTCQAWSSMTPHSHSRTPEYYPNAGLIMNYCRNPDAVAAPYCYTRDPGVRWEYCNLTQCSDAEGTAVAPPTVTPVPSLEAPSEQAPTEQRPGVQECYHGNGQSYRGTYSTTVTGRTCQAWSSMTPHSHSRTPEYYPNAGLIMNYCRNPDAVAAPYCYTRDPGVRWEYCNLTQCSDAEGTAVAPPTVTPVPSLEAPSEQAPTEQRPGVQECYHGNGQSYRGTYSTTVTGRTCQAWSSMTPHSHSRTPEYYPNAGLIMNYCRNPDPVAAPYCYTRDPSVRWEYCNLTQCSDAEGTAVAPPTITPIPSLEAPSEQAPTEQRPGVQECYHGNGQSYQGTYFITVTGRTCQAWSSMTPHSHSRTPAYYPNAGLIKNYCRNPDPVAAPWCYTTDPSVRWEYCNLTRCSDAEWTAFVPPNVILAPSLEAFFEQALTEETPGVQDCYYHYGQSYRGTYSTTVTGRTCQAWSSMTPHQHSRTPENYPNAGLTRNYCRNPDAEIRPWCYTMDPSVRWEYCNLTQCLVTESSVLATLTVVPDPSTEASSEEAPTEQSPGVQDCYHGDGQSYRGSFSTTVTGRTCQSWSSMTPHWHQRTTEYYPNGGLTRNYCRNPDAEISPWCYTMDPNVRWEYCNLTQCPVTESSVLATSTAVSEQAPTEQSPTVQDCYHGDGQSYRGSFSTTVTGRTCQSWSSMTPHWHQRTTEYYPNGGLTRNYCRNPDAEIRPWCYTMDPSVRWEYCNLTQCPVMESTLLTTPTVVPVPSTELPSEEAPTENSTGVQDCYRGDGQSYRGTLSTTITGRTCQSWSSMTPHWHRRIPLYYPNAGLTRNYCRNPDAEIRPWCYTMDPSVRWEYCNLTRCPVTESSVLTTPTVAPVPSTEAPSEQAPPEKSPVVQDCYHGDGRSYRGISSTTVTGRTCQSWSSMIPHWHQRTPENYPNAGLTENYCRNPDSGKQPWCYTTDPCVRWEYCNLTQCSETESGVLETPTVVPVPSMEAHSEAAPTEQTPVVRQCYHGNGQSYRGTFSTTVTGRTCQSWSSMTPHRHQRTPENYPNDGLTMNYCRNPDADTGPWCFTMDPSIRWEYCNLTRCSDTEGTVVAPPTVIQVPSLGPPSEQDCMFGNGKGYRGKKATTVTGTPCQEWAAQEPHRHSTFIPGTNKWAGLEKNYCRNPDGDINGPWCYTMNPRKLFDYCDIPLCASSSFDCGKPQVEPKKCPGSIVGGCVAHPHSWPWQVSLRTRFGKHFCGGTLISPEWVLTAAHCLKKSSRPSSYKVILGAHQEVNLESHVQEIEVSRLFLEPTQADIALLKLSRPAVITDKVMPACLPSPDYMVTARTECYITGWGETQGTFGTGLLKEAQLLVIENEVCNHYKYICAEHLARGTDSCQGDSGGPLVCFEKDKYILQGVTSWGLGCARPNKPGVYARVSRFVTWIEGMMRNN
Structure (SMILES),IC50 (Lp(a) assembly) [nM],Lp(a) Inhibition Rate (Lp(a)) [%],"changes in clinical observation, body weight and weight gain, food consumption, hematology, blood biochemistry, urine, organ weight and coefficients, and histopathology [1]"
O=C(O)[C@@H](Cc1ccc2c(CN(Cc3n[nH]c4cc(C[C@H](C(=O)O)[C@H]5CCNC5)ccc34)Cc3n[nH]c4cc(C[C@H](C(=O)O)[C@H]5CCNC5)ccc34)n[nH]c2c1)[C@H]1CCNC1 [Compound 136],2.16,,
O=C(O)[C@@H](Cc1cccc(CN(Cc2cccc(C[C@H](C(=O)O)[C@H]3CCNC3)c2)Cc2cccc(C[C@H](C(=O)O)[C@H]3CCNC3)c2)c1)[C@H]1CCNC1 [LY3473329],1.05,56,no changes
